# Tests used:
# [1] = system: nitrification in the soil; experiment: Laboratory soil incubation, Templeton sandy loam with synthetic cow urine, nitrate-N
# Procedure: A Templeton sandy loam was used in this experiment. 500 g of soil (dry weight basis) was packed into a pottle. 50 mL of synthetic cow urine with an N concentration of 7 g N/L (comprising about 87% urea-N and 13% glycine-N) was applied to the soil (equivalent to 700 kg N/ha on weight basis, assuming bulk density of 1 g/cm^3 in the top 10 cm of soil). The 700 kg N/ha application was used to simulate the urine-N application rate under a typical dairy cow urine patch in a grazed pasture.
# Control treatments also added to soil were: • urine alone (50 mL); • DMSO (equivalent to 0.9 mL/500 g soil)+urine (50 mL) to determine the effect of DMSO on nitrification rate; • water alone (50 mL) (simulating areas of the soil where no urine was deposited).
# Pottles were covered with lids with breathing holes to allow for gas exchange during incubation. Pottles were incubated at 12° C. Soil moisture content was maintained at field capacity by adjusting on weight basis twice a week.
# Soil samples were collected and were then thoroughly mixed and subsamples were extracted in a potassium chloride solution and analysed for mineral-N. Soil moisture content was also determined. Samples were taken at 30 days after the start of incubation. […]
# [2] = system: Bacillus subtilis; experiment: Antimicrobial susceptibility testing (MIC plate); format: cell-based; details: at concentrations used in soil to inhibit nitrification
# Procedure: (§1) To determine if 4-Ethynylanisole specifically targets the ammonium oxidizing bacterium N. europaea we examined the antimicrobial properties of 4-Ethynylanisole against selected bacterial species. Bacteria were routinely grown in Lysogeny broth (LB) (E. coli and B. subtilis), LB-Tween (M. smegmatis), or Rhizobium defined media (G RDM) (M. loti […]). E. coli, B. subtilis, and M. smegmatis were grown overnight (18 hr) at 37° C. with shaking (200 rpm), whereas M. loti […] was grown for 48 hr statically at 28° C. 96-well microtiter plates used for the antimicrobial susceptibility testing were set up as follows; 200 μl of media (or as appropriate) was added to column […]) and 100 μl of media was added to the remaining wells of a polystyrene 96 well plate. 4-Ethynylanisole was added to column 1 at a concentration of 512 μM (or as required) and serially diluted 2-fold (100 μl transfer) into the neighbouring wells, making sure to discard 100 μl from the last well. Thus, resulting in a serial dilution of each compound. […] Plates were incubated at either 37° C., or 28° C. (with shaking as required) for 18-48 hr before determining the MIC.
# [3] = system: Mesorhizobium loti R7A; experiment: Antimicrobial susceptibility testing (MIC plate); format: cell-based; details: at concentrations used in soil to inhibit nitrification
# Procedure: as §1
# [4] = system: Escherichia coli; experiment: Antimicrobial susceptibility testing (MIC plate); format: cell-based; details: at concentrations used in soil to inhibit nitrification
# Procedure: as §1
# [5] = system: Mycobacterium smegmatis; experiment: Antimicrobial susceptibility testing (MIC plate); format: cell-based; details: at concentrations used in soil to inhibit nitrification
# Procedure: as §1
smiles,measurement,setting,value
"C#Cc1ccc(OC)cc1 [4-Ethynylanisole, 1-ethynyl-4-methoxybenzene]",nitrate-N concentration in the soil compared with urine alone,"[1]; Study 1-14, 2 to 20 kg/ha, day 30",significantly lower nitrate-N concentrations
same,soil nitrate-N concentration changes with time,"[1]; Study 1-14, range of rates 2, 5, 10, 20 kg/ha, days 1, 14, 30",significant inhibition of nitrate production
same,inhibition of bacterial growth,[2],did not inhibit
same,inhibition of bacterial growth,[3],did not inhibit
same,inhibition of bacterial growth,[4],did not inhibit
same,inhibition of bacterial growth,[5],did not inhibit
